Our source for the IC50 values is patent US7144903B2, “CCR4 antagonists” (Amgen Inc., priority 2001, dated 2006).

One experiment concerns the target T1, CCR4 (Homo sapiens, UniProt P51679).
T1 construct: cells expressing CCR4 (e.g., CEM cells, available from the ATCC); host or cells: CEM cells
T1 sequence (P51679 1-360): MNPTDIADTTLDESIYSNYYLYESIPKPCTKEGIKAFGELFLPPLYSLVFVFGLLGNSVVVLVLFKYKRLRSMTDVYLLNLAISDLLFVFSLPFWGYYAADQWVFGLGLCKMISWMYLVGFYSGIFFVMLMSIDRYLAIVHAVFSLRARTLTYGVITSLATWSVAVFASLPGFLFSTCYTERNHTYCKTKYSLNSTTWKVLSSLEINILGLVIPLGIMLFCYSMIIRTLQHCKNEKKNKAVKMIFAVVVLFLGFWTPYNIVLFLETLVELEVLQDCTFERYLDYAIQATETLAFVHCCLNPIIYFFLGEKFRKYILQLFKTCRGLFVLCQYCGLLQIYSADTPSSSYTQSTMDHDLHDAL
Kind of experiment: CCR4 binding assay: inhibition of 125I-TARC binding to cells expressing CCR4 (e.g., CEM cells).
Conditions: not given
The source says: This example illustrates a CCR4 binding assay that can be used for evaluating the compounds of the present invention.
Detection of Radiolabelled TARC and/or MDC Binding to CCR4
^125I-labelled TARC and MDC are available from commercial sources (e.g., Amersham-Pharmacia or Perkin Elmer Life Sciences). All buffers and materials are available from commercial sources (e.g., Gibco BRL, Sigma). To measure binding of ^125I-TARC or ^125I-MDC to cells expressing CCR4 (e.g., CEM cells, available from the ATCC), the ^125I-TARC or ^125I-MDC is diluted to a concentration of approximately 200 pM in a buffered saline solution (e.g., RPMI supplemented with 0.5% bovine serum albumin), and added to an equal volume of a suspension of cells (e.g., CEM cells at 5×10^6 cells/mL). The resulting mixture is incubated for a period of time (e.g., 2 hours). The unbound ^125I-TARC or ^125I-MDC is separated from the cells by filtration, e.g., by passage through GF/B filter plate (Packard Biosciences) pre-treated with 0.3% polyethyleneimine (Sigma), using a Packard Filtermate 96 (Packard Biosciences). The amount of ^125I-TARC or ^125I-MDC retained with the cells on the filterplate is measured by adding a small amount of scintillation fluid (e.g., 50 μL of Microscint-20, obtained from Packard Biosciences), and reading scintillation on appropriate detection equipment, e.g., a Packard TopCount 383 (Packard Biosciences).
Non-specific binding of ^125I-TARC or ^125I-MDC can be estimated by measuring the amount of ^125I-TARC or ^125I-MDC retained with the cells on the filterplate when the assay is performed in the presence of a large excess of unlabelled TARC or MDC.
Inhibition of ^125I-TARC or ^125I-MDC binding to CCR4 is defined as a decrease in the retention of ^125I-TARC or ^125I-MDC to the cells on the filterplate.
The assay described above varies only moderately from standardly used procedures, e.g., Imai et al. (1997) J. Biol. Chem. 272:15036–15042, Imai et al. (1998) J. Biol. Chem. 273:1764–1768.
`Clc1ccc2nc(Nc3cccc4ccccc34)sc2c1` [Compound 18] had an IC50 of more than 1000 nM.

Staying with this experiment, now noted: CCR4 antagonist activity, inhibition of 125I-TARC binding; read-out: IC50.
Regarding `CC(C)CCCc1ccccc1Nc1nc(C(C)(C)C)cs1` [Compound 49], the IC50 is less than 1000 nM.
Take `Cc1cccc(Nc2nc(CN(CC(C)C)CC(C)C)co2)c1C` [Compound 45, {4-[(Diisobutylamino)-methyl]-oxazol-2-yl}-(2,3-dimethyl-phenyl)-amine]: the IC50 was less than 1000 nM.
Regarding `Cn1ccc2c(Nc3nc(C(C)(C)C)cs3)cccc21` [Compound 21, (4-tert-Butyl-thiazol-2-yl)-(1-methyl-1H-indol-4-yl)-amine], the IC50 is less than 1000 nM.
On the same count and under the same terms, in the case of `CCCc1sc(Nc2cccc3ccccc23)nc1C(C)(C)C` [Compound 9] it was more than 1000 nM.
As to `CC(C)(C)c1csc(Nc2cccnc2CCCC2CCCC2)n1` [Compound 20, (4-tert-Butyl-thiazol-2-yl)-[2-(3-cyclopentyl-propyl)-pyridin-3-yl]-amine], the IC50 was more than 1000 nM.
Same read-out and setting: in the case of `CC(C)c1csc(Nc2cccc3ccccc23)n1` [Compound 12] it was more than 1000 nM; in that of `c1ccc(CN2CCc3sc(Nc4cccc5ccccc45)nc3C2)cc1` [Compound 19], less than 1000 nM; in that of `FC(F)(F)c1ccccc1CN(Cc1csc(Nc2cccc3ncccc23)n1)CC1CCCCC1` [Compound 35], less than 1000 nM.
The same measure, in the same setting: as for `CC(C)(C)c1csc(Nc2cccc3ccccc23)n1` [Compound 11], the figure is more than 1000 nM.
Same read-out and setting: in the case of `CC(C)(C)c1csc(Nc2ccccc2N2CCOCC2)n1` [Compound 1] it was less than 1000 nM.
`CC(C)(C)c1csc(Nc2cccc3ncccc23)n1` [Compound 7]: the IC50 is less than 1000 nM.
The same measure, in the same setting: as for `Cc1c(Br)cccc1Nc1nc(C(C)(C)C)cs1` [Compound 6], the figure is more than 1000 nM.
On the same count and under the same terms, in the case of `Cc1sc(Nc2cccc3ccccc23)nc1C(C)(C)C` [Compound 10] it was more than 1000 nM; in that of `CC(C)(C)c1csc(NCc2ccccc2)n1` [Compound 3], less than 1000 nM.
Turning to `CC(C)(C)c1csc(Nc2ccc(Cl)c3ccccc23)n1` [Compound 4], the IC50 was less than 1000 nM.
Still for that read-out and setting: in the case of `CCOC(=O)CC(C)(C)c1csc(Nc2cccc3ccccc23)n1` [Compound 13] it was more than 1000 nM; in that of `Cc1cccc(Nc2nc(C(C)(C)C)cs2)c1C` [Compound 2], more than 1000 nM.
The same measure, in the same setting: in the case of `Cn1ccc2c(Nc3nc(CN(Cc4ccccc4OC(F)(F)F)CC4CCCCC4)cs3)cccc21` [Compound 24, (4-{[Cyclohexylmethyl-(2-trifluoromethoxy-benzyl)-amino]-methyl}-thiazol-2-yl)-(1-methyl-1H-indol-4-yl)-amine] it was less than 1000 nM.
Same read-out and setting: as for `CC(=O)c1csc(Nc2cccc3ccccc23)n1` [Compound 15, 4-Acetoyl-2-naphthylamino thiazole], the figure is more than 1000 nM.
Consider `CC(C)(C)Cc1csc(Nc2cccc3ccccc23)n1` [Compound 8], for which the IC50 is more than 1000 nM.
As to `CC(C)(C)c1csc(Nc2cccc3c2CCCC3)n1` [Compound 5], the IC50 was more than 1000 nM.

For orientation: IC50 means the concentration that inhibits the measured activity by half.
